Broadly, the CC50 is the concentration giving 50% cytotoxicity. A low value points to greater toxicity to the cells. By inhibition is commonly meant how much of the control response was suppressed. A lower inhibition goes with a weak effect. Usually IC50 stands for the concentration that inhibits the measured activity by half.

The source of these data is patent publication US20240279201A1, “DUAL WNT SIGNALING PATHWAY INHIBITORS AND AMPK ACTIVATORS FOR TREATMENTS OF DISEASE” (priority 2021, published 2024).

Molecules are shown by their SMILES.

One series has as its system AMPK. Briefly: AMPK activation in SW620 cells (immunoblotting). Format: cell-based. The procedure:
HEK293 cells were stained with anti-axin-1 or DAPI and studied under fluorescence microscopy. FIG. 26B is an image illustrating enhanced AMPK phosphorylation by Axin overexpression (empty pcDNA3 vs. pcDNA3-Axin-1) in HEK293 cells. […] See FIG. 23A-FIG. 23C for Axin knockdown. […] Cells were treated for 24 h.
Treatment of compound YW2049 indicated no effects on total protein levels of AMPK and ACC in SW620 cells.
The effects of FX analogs in Axin stabilization and AMPK activation were further studied by genetic manipulation of Axin. Axin overexpression led to enhanced AMPK activation (FIG. 26A and FIG. 26B). In contrast, it has been reported that knockdown of Axin in cells and in mouse liver impairs AMPK activation. […] This timeline is consistent with the reports that Axin can form a complex with AMPK.
In general terms: A western blot detects proteins with antibodies after separation by electrophoresis.

Another series relates to CRC cells. As to conditions: as reported in literature; cited from earlier work.
The nature of series [1]: Cytotoxicity (CC50) during the luciferase gene reporter assay. The format is cell-based. The settings on record: human, HEK293 cells; short treatment duration of the luciferase gene reporter assay. (In general: In a reporter assay the amount or activity of a reporter protein is the signal.)
For series [2], the system named is Wnt/β-Catenin signaling pathway. Description: Wnt signaling luciferase (TOPflash) reporter gene assay. Format: cell-based. The settings on record: for IC50: luciferase reporter gene assay, mean of three independent experiments, read-out: IC50 (nM) to inhibit the Wnt signaling activity. An excerpt: A dual-luciferase gene reporter assay was used to test inhibitory activities of new compounds on Wnt signaling. […] Therefore, the effects of new compounds on AMPK was examined. […]

For series [3], the system named is Wnt signaling in SW480 cells. Briefly: Luciferase gene reporter (TOPflash) assay in SW480 cells. The format is cell-based, human.

On to `Cc1ccccc1-n1nnc(C(=O)Nc2ccc3ccccc3n2)c1C` [YW1128], for which the p-AMPK levels result with AMPK was “increased”.

For `O=C1[O][Pt]2([NH][C@@H]3CCCC[C@H]3[NH]2)[O]C1=O` [oxaliplatin], the “IC50 in killing CRC cells” value in the series on CRC cells is “low μM”.

In turn, `Oc1nc(-c2ccc(C(F)(F)F)cc2)nc2c1CSCC2` [XAV939, reference compound] returned a CC50 in series [1] above 92 µM. Also, the inhibition at 1 µM in series [2] came to 74%. Besides, in series [3], the “extent of inhibition of Wnt signaling activity in reporter assays” value is listed as “could not fully inhibit Wnt signaling activity”.

`O=c1[nH]cc(F)c(=O)[nH]1` [5-FU]: the “IC50 in killing CRC cells” value in the series with CRC cells is given as “low μM”.

Take `Cc1c(C(=O)Nc2cnc3ccccc3n2)nnn1-c1ccccc1F` [YA6138, 1-(2-Fluorophenyl)-5-methyl-N-(quinoxalin-2-yl)-1H-1,2,3-triazole-4-carboxamide]: the CC50 in series [1] was above 92 µM. Further, the IC50 in series [2] was determined as 0.15 nM.

In the case of `Cc1ccccc1-n1nnc(C(=O)Nc2ccc3ccccc3n2)c1C` [FX1128, reference compound], the CC50 in series [1] is above 92 µM. In addition, the IC50 in series [2] was determined as 4.1 nM.

`Cc1ccccc1-n1nnc(C(=O)Nc2ncc(-c3ccccc3)s2)c1C` [YA4085, 5-Methyl-N-(5-phenylthiazol-2-yl)-1-(o-tolyl)-1H-1,2,3-triazole-4-carboxamide]: in series [1], the CC50 was above 92 µM. In series [2], the inhibition at 1 µM is 37% and the IC50 is above 1000 nM.

`Cc1c(C(=O)Nc2nc3ccccc3s2)cnn1-c1c(F)cccc1Br` [YA4017, N-(Benzo[d]thiazol-2-yl)-1-(2-bromo-6-fluorophenyl)-5-methyl-1H-pyrazole-4-carboxamide] showed a CC50 in series [1] above 92 µM. For the same molecule, the IC50 in series [2] amounted to 8.2 nM.

As to `Cc1c(C(=O)Nc2nc3ccccc3s2)nnn1-c1cccc(Br)c1` [YA1050, N-(Benzo[d]thiazol-2-yl)-1-(3-bromophenyl)-5-methyl-1H-1,2,3-triazole-4-carboxamide], the CC50 in series [1] is above 92 µM. In series [2], the inhibition at 1 µM was 7% and the IC50 was above 1000 nM.

`COc1ccc2sc(NC(=O)c3nnn(-c4ccccc4C)c3C)nc2c1` [YA4045, N-(5-Methoxybenzo[d]thiazol-2-yl)-5-methyl-1-(o-tolyl)-1H-1,2,3-triazole-4-carboxamide] registered a CC50 in series [1] above 92 µM. The IC50 in series [2] was above 1000 nM.

As for `Cc1ccccc1-n1ncc(C(=O)Nc2nc3ccccc3s2)c1C` [YA6179, N-(Benzo[d]thiazol-2-yl)-5-methyl-1-(o-tolyl)-1H-pyrazole-4-carboxamide], the CC50 in series [1] is above 92 µM. Besides, in series [2], the IC50 worked out at 1.4 nM.

Consider `COc1ccccc1-n1ncc(C(=O)Nc2nc3ccccc3s2)c1C` [YA7020, N-(Benzo[d]thiazol-2-yl)-1-(2-methoxyphenyl)-5-methyl-1H-pyrazole-4-carboxamide], for which the CC50 in series [1] was above 92 µM. For the same molecule, the IC50 in series [2] turned out to be 9.5 nM.

Consider `Cc1c(C(=O)Nc2nc3ccccc3s2)nnn1-c1c(Cl)cccc1Cl` [YA1066, N-(Benzo[d]thiazol-2-yl)-1-(2,6-dichlorophenyl)-5-methyl-1H-1,2,3-triazole-4-carboxamide], for which the CC50 in series [1] was above 92 µM. Moreover, in series [2], 1 µM produced 88% inhibition and the IC50 was 19 nM.

`CC(C)(C)c1c(C(=O)Nc2nc3ccccc3s2)nnn1-c1ccccc1F` [YA6176, N-(Benzo[d]thiazol-2-yl)-5-(tert-butyl)-1-(2-fluorophenyl)-1H-1,2,3-triazole-4-carboxamide]: the CC50 in series [1] was above 92 µM. Moreover, in series [2], the inhibition at 1 µM is 58% and the IC50 is 251 nM.

In series [1], `Cc1ccccc1-n1nnc(C(=O)Nc2ccc3cccnc3c2)c1C` [YA6162, 5-Methyl-N-(quinolin-7-yl)-1-(o-tolyl)-1H-1,2,3-triazole-4-carboxamide] yielded a CC50 above 92 µM. The IC50 in series [2] was above 1000 nM.

Turning to `Cc1c(C(=O)Nc2nc3ccccc3s2)cnn1-c1ccccc1F` [YA4007, N-(Benzo[d]thiazol-2-yl)-1-(2-fluorophenyl)-5-methyl-1H-pyrazole-4-carboxamide], the CC50 in series [1] is above 92 µM. Moreover, the IC50 in series [2] is 1.3 nM.

`CCc1c(C(=O)Nc2nc3ccccc3s2)nnn1-c1ccccc1F` [YA4001, N-(Benzo[d]thiazol-2-yl)-5-ethyl-1-(2-fluorophenyl)-1H-1,2,3-triazole-4-carboxamide] came in with a CC50 in series [1] above 92 µM. The IC50 in series [2] was 0.76 nM.

`CC(C)c1c(C(=O)Nc2nc3ccccc3s2)nnn1-c1ccccc1F` [YA4005, N-(Benzo[d]thiazol-2-yl)-1-(2-fluorophenyl)-5-isopropyl-1H-1,2,3-triazole-4-carboxamide]: the CC50 in series [1] is above 92 µM. In series [2], testing at 1 µM gave an inhibition of 99% and the IC50 worked out at 8.8 nM.

`Cc1ccccc1-n1nnc(C(=O)Nc2ccc3cc(O)ccc3n2)c1C` [YA6079] displayed a CC50 in series [1] above 92 µM. Further, the IC50 in series [2] was above 1000 nM.

In turn, `Cc1c(C(=O)Nc2nc3ccccc3s2)nnn1-c1c(F)cccc1F` [YA6090, N-(Benzo[d]thiazol-2-yl)-1-(2,6-difluorophenyl)-5-methyl-1H-1,2,3-triazole-4-carboxamide] had a CC50 in series [1] above 92 µM. Also, in series [2], the inhibition at 1 µM is 97% and the 50% inhibitory concentration (IC50) was 2.5 nM.

In the case of `Cc1cc(C(=O)Nc2nc3ccccc3s2)c(C)n1-c1ccccc1` [YA4136], the CC50 in series [1] was above 92 µM. In addition, in series [2], the IC50 is above 1000 nM.

Consider `Cc1ccccc1C1CCC(C(=O)Nc2nc3ccccc3s2)C1` (stereo not shown) [YA4138], for which the CC50 in series [1] is above 92 µM. In addition, the IC50 in series [2] is above 1000 nM.

For `Cc1c(C(=O)Nc2nc3ccccc3s2)nnn1-c1ccccc1Cl` [YA6027, N-(Benzo[d]thiazol-2-yl)-1-(2-chlorophenyl)-5-methyl-1H-1,2,3-triazole-4-carboxamide], the CC50 in series [1] was above 92 µM. For the same molecule, in series [2], the inhibition at 1 µM was found to be 98% and the IC50 turned out to be 0.8 nM.

`Cc1ccccc1-c1csc(NC(=O)c2nnn(-c3ccccc3C)c2C)n1` [YA4171] gave a CC50 in series [1] above 92 µM. In addition, in series [2], the IC50 is above 1000 nM.

As to `Cc1c(C(=O)Nc2nc3ccccc3s2)cnn1-c1ccccc1Br` [YA4033, N-(Benzo[d]thiazol-2-yl)-1-(2-bromophenyl)-5-methyl-1H-pyrazole-4-carboxamide], the CC50 in series [1] is above 92 µM. In addition, the IC50 in series [2] stood at 5.8 nM.

Consider `Cc1ccccc1-n1nnc(C(=O)Nc2nc3cc(Cl)ccc3s2)c1C` [YA4013, N-(5-Chlorobenzo[d]thiazol-2-yl)-5-methyl-1-(o-tolyl)-1H-1,2,3-triazole-4-carboxamide], for which the CC50 in series [1] is above 92 µM. Also, in series [2], the inhibition at 1 µM came out at 61% and the IC50 is 202 nM.

Regarding `Cc1ccccc1-n1nnc(C(=O)Nc2nc(-c3ccccc3)c(-c3ccccc3)s2)c1C` [YA4133, N-(4,5-Diphenylthiazol-2-yl)-5-methyl-1-(o-tolyl)-1H-1,2,3-triazole-4-carboxamide], the CC50 in series [1] was above 92 µM. Further, in series [2], the inhibition at 1 µM turned out to be 49% and the IC50 is above 1000 nM.
